Literature values in patent publication US20230082651A1, “STABLE AQUEOUS COMPOSITIONS OF PLANTS EXTRACTS AND METHODS OF MAKING THE SAME” (Nulixir Inc., priority 2021, published 2023).

Columns and labels:
[1] = water and n-octanol; categorization at pH=7 unless stated otherwise
[2] = as a function of water content

Which “log P” value [1] does the source give for `COc1c2c(cc3c1-c1c(cc4c(c1OC)OCO4)C[C@H](C)[C@H](C)C3)OCO2` [(−)-schisandrin C] here?
Its value is about 3.5.

Which “log P” value [1] does the source give for `COc1cc(/C=C\c2ccc(OC)c(O)c2)oc(=O)c1` [11-hydroxyyangonin] here?
The value was about 2.2.

With bacopaside B as the compound, how does the “log P” value [1] read?
The value was about 2.8.

For herinacine A, which “log P” value [1] is on record?
The value was about 2.5.

For `COC1=CC(=O)OC(/C=C/c2ccc(OC)cc2)C1` (stereo not drawn) [5,6-dihydroyangonin], which “log P” value [1] is on record?
The value was about 2.5.

For `COc1cc([C@H]2Oc3cc(O)c4c(=O)c(O)c(-c5ccc(O)cc5)oc4c3O[C@@H]2CO)ccc1O` [rhodiolin], which “log P” value [1] is on record?
The value was about 2.

For `CC(C)=C[C@H]1C[C@](C)(O)[C@H]2[C@H]3CC[C@@H]4[C@@]5(C)CC[C@H](O[C@@H]6O[C@H](CO)[C@@H](O)[C@H](O[C@@H]7O[C@H](CO)[C@@H](O)[C@H](O)[C@H]7O)[C@H]6O[C@@H]6O[C@@H](CO)[C@H](O)[C@H]6O)C(C)(C)[C@@H]5CC[C@@]4(C)[C@@]34CO[C@@]2(C4)O1` [bacoside A3], which “log P” value [1] is on record?
Its value is about 2.1.

With `CC(C)=C[C@@H]1CO[C@]23C[C@]4(CO2)[C@H](CC[C@@H]2[C@@]5(C)CC[C@H](O[C@@H]6OC[C@H](O)[C@H](O[C@@H]7O[C@H](CO)[C@@H](O)[C@H](O)[C@H]7O)[C@H]6O[C@@H]6O[C@@H](CO)[C@H](O)[C@H]6O)C(C)(C)[C@@H]5CC[C@]24C)[C@H]3[C@@]1(C)O` [bacopasaponin C] as the compound, how does the “log P” value [1] read?
Its value is about 2.

With `COc1ccc([C@@]23C=CC(=O)C[C@@H]2N(C)CC3)cc1OC` [mesembrenone] as the compound, how does the “log P” value [1] read?
The value was about 1.3.

Which “log P” value [1] does the source give for `COc1cc2c(c(OC)c1OC)-c1c(cc(OC)c(OC)c1OC)C[C@](C)(O)[C@@H](C)C2` [(+)-schisandrin] here?
The value was about 5.

For `CC1=C(CO)C(=O)O[C@@H]([C@@H](C)[C@H]2CC[C@H]3[C@@H]4C[C@H](Cl)[C@]5(O)[C@@H](O)C=CC(=O)[C@]5(C)[C@H]4CC[C@]23C)C1` [6a-chloro-5b-hydroxywithaferin A], which “log P” value [1] is on record?
The value was about 3.2.

Which “log P” value [1] does the source give for `COc1ccc([C@@]23CCC(=O)C[C@@H]2N(C)CC3)cc1OC` [mesembrine] here?
Its value is about 1.5.

With `COC1=CC(=O)O[C@@H](CCc2ccc3c(c2)OCO3)C1` [7,8-dihydromethysticin] as the compound, how does the “log P” value [1] read?
The value was about 2.2.

With `COc1ccc(C23C=CC(O)CC2N(C)CC3)cc1OC` (stereo not drawn) [mesembrenol] as the compound, how does the “log P” value [1] read?
The value was about 2.4.

Which “log P” value [1] does the source give for `CC(C)=CCC[C@](C)(O[C@@H]1O[C@H](CO)[C@@H](O)[C@H](O)[C@H]1O)[C@H]1CC[C@]2(C)[C@@H]1[C@H](O)C[C@@H]1[C@@]3(C)CC[C@H](O)C(C)(C)[C@@H]3[C@@H](O[C@@H]3O[C@H](CO)[C@@H](O)[C@H](O)[C@H]3O)C[C@]12C` [ginsenoside rgl] here?
The value was about 0.8.

With `COc1ccc2cc3[n+](cc2c1OC)CCc1cc2c(cc1-3)OCO2` [berberine] as the compound, how does the solubility in ethanol [2] read?
The solubility in ethanol was “decreases rapidly with water content”.

For `COc1nc2c(c(=O)n1C)n(C)c(=O)n2C` [methylliberine], which “log P” value [1] is on record?
Its value is about −0.083.

With `COc1cc2c(c(OC)c1OC)-c1c(cc(OC)c(OC)c1OC)C[C@H](C)[C@H](C)C2` [(−)-schisandrin A] as the compound, how does the “log P” value [1] read?
Its value is about 3.6.

Which “log P” value [1] does the source give for `N#C[C@@]1(O[C@@H]2O[C@H](CO)[C@@H](O)[C@H](O)[C@H]2O)C=C[C@@H](O)C1` [tetraphyllin B] here?
Its value is about −2.5.

With (R)-kawain as the compound, how does the “log P” value [1] read?
The value was about 2.7.

Which “log P” value [1] does the source give for tortuosomine here?
Its value is about 3.

With `CC(=O)OC1C=CC(=O)N(C(=O)CCc2ccccc2)C1` (stereo not drawn) [pipermethystine] as the compound, how does the “log P” value [1] read?
Its value is about 1.8.

For `CC(C)=CCC[C@](C)(O[C@@H]1O[C@H](CO[C@@H]2O[C@H](CO)[C@@H](O)[C@H](O)[C@H]2O)[C@@H](O)[C@H](O)[C@H]1O)[C@H]1CC[C@]2(C)[C@@H]1[C@H](O)C[C@@H]1[C@@]3(C)CC[C@H](O[C@@H]4O[C@H](CO)[C@@H](O)[C@H](O)[C@H]4O[C@@H]4O[C@H](CO)[C@@H](O)[C@H](O)[C@H]4O)C(C)(C)[C@@H]3CC[C@]12C` [ginsenoside rb1], which “log P” value [1] is on record?
Its value is about −1.

Which “log P” value [1] does the source give for `CC(C)=C[C@H]1C[C@](C)(O)[C@@H]2[C@H]3CC[C@@H]4[C@@]5(C)CC[C@H](O[C@@H]6OC[C@H](O)[C@H](O[C@@H]7O[C@H](CO)[C@@H](O)[C@H](O)[C@H]7O)[C@H]6O[C@@H]6O[C@@H](CO)[C@H](O)[C@H]6O)C(C)(C)[C@@H]5CC[C@@]4(C)[C@@]34CO[C@@]2(C4)O1` [bacopaside X] here?
The value was about 2.2.

For `COc1ccc(CCc2cc(OC)cc(=O)o2)cc1` [7,8-dihydroyangonin], which “log P” value [1] is on record?
The value was about 2.9.

For hericerin, which “log P” value [1] is on record?
Its value is about 6.4.

Which “log P” value [1] does the source give for schisandroside C here?
The value was about 1.6.
